Experimental data as given in patent US9211310B2, “Use of a Chinese medicine composition in preparing medicaments for treating secondary prevention of myocardial infarction” (TASLY PHARMACEUTICAL GROUP CO., LTD, priority 2010, dated 2015).

Tested on: patients after acute myocardial infarction
Assay: Life quality, Seattle Angina Questionnaire (SAQ), same clinical trial
Format: in vivo, human
Conditions: PP
Source text: 3508 patients who were in accordance with the diagnostic standards of AMI for 28 days to 2 years and differentiated as Qi deficiency and blood stagnation syndrome by TCM were studied. 0.5 g Chinese medicine composition prepared by the method of EXAMPLE 1 (Coded as QSYQ) was administrated half an hour after meal, 3 times per day.
There were 19 questions in the Seattle angina questionnaire (SAQ), including 5 parts: physical limitation (PL), anginal stability (AS), anginal frequency (AF), treatment satisfaction (TS) and disease perception (DP). After being given necessary explanation by doctors, the questions were answered independently by patients.
They included the overall survival time, angina pectoris score, TCM symptom score and life quality score, where angina pectoris score, TCM symptom score and life quality score were evaluated at randomization, in 1st, 3rd, 6th, 9th, 12th month after treatment and 18th month after follow-up.
All evaluation results of SAQ were described during the period of observation, and Wilcoxon rank sum test was used for inter-group comparison.
The evaluation results in the SAQ were depicted in different observations, and inter-group comparison was tested by Wilcoxon Rank-sum test.

CC(=O)Oc1ccccc1C(=O)O [Control group, aspirine]
SAQ 6th question, Highly consent: % of patients (1 month after treatment): (17.86%) | SAQ 6th question, Highly consent: number of patients (1 month after treatment): 266 | SAQ 6th question, Mostly dissatisfied: % of patients (1 month after treatment): (4.37%) | SAQ 6th question, Mostly dissatisfied: number of patients (1 month after treatment): 65 | SAQ 6th question, Mostly satisfied: % of patients (1 month after treatment): (47.88%) | SAQ 6th question, Mostly satisfied: number of patients (1 month after treatment): 713 | SAQ 6th question, Partly satisfied: % of patients (1 month after treatment): (29.68%) | SAQ 6th question, Partly satisfied: number of patients (1 month after treatment): 442 | SAQ 7th question, Dissatisfied: % of patients (1 month after treatment): (0.13%) | SAQ 7th question, Dissatisfied: number of patients (1 month after treatment): 2 | SAQ 7th question, Highly satisfied: % of patients (1 month after treatment): (23.40%) | SAQ 7th question, Highly satisfied: number of patients (1 month after treatment): 348 | SAQ 7th question, Mostly dissatisfied: % of patients (1 month after treatment): (3.36%) | SAQ 7th question, Mostly dissatisfied: number of patients (1 month after treatment): 50 | SAQ 7th question, Mostly satisfied: % of patients (1 month after treatment): (48.69%) | SAQ 7th question, Mostly satisfied: number of patients (1 month after treatment): 724 | SAQ 7th question, Partly satisfied: % of patients (1 month after treatment): (24.41%) | SAQ 7th question, Partly satisfied: number of patients (1 month after treatment): 363 | SAQ Question 1-1 Mildly limited, number of patients (1 month after treatment): 21 | SAQ Question 1-1 Mildly limited, percent of patients (1 month after treatment): (1.41%) | SAQ Question 1-1 Moderately limited, number of patients (1 month after treatment): 9 | SAQ Question 1-1 Moderately limited, percent of patients (1 month after treatment): (0.60%) | SAQ Question 1-1 Not limited, number of patients (1 month after treatment): 1375 | SAQ Question 1-1 Not limited, percent of patients (1 month after treatment): (92.41%) | SAQ Question 1-1 Other reasons, number of patients (1 month after treatment): 2 | SAQ Question 1-1 Other reasons, percent of patients (1 month after treatment): (0.13%) | SAQ Question 1-1 Severely limited, number of patients (1 month after treatment): 1 | SAQ Question 1-1 Severely limited, percent of patients (1 month after treatment): (0.07%) | SAQ Question 1-1 Slightly limited, number of patients (1 month after treatment): 80 | SAQ Question 1-1 Slightly limited, percent of patients (1 month after treatment): (5.38%) | SAQ Question 1-2 Mildly limited, number of patients (1 month after treatment): 30 | SAQ Question 1-2 Mildly limited, percent of patients (1 month after treatment): (2.02%) | SAQ Question 1-2 Moderately limited, number of patients (1 month after treatment): 10 | SAQ Question 1-2 Moderately limited, percent of patients (1 month after treatment): (0.67%) | SAQ Question 1-2 Not limited, number of patients (1 month after treatment): 1345 | SAQ Question 1-2 Not limited, percent of patients (1 month after treatment): (90.39%) | SAQ Question 1-2 Other reasons, number of patients (1 month after treatment): 4 | SAQ Question 1-2 Other reasons, percent of patients (1 month after treatment): (0.27%) | SAQ Question 1-2 Severely limited, number of patients (1 month after treatment): 0 | SAQ Question 1-2 Severely limited, percent of patients (1 month after treatment): (0.00%) | SAQ Question 1-2 Slightly limited, number of patients (1 month after treatment): 99 | SAQ Question 1-2 Slightly limited, percent of patients (1 month after treatment): (6.65%) | SAQ Question 1-6: Mildly limited, patients (%) (1 month after treatment): (18.24%) | SAQ Question 1-6: Moderately limited, patients (%) (1 month after treatment): (15.53%) | SAQ Question 1-6: Not limited, patients (%) (1 month after treatment): (29.08%) | SAQ Question 1-6: Other reasons, patients (%) (1 month after treatment): (0.88%) | SAQ Question 1-6: Severely limited, patients (%) (1 month after treatment): (4.75%) | SAQ Question 1-6: Slightly limited, patients (%) (1 month after treatment): (31.53%) | SAQ Question 1-7: Mildly limited, patients (%) (1 month after treatment): (23.85%) | SAQ Question 1-7: Moderately limited, patients (%) (1 month after treatment): (17.55%) | SAQ Question 1-7: Not limited, patients (%) (1 month after treatment): (12.34%) | SAQ Question 1-7: Other reasons, patients (%) (1 month after treatment): (3.08%) | SAQ Question 1-7: Severely limited, patients (%) (1 month after treatment): (17.75%) | SAQ Question 1-7: Slightly limited, patients (%) (1 month after treatment): (25.43%) | SAQ Question 1-8: Mildly limited, patients (%) (1 month after treatment): (24.83%) | SAQ Question 1-8: Moderately limited, patients (%) (1 month after treatment): (20.79%) | SAQ Question 1-8: Not limited, patients (%) (1 month after treatment): (8.28%) | SAQ Question 1-8: Other reasons, patients (%) (1 month after treatment): (2.87%) | SAQ Question 1-8: Severely limited, patients (%) (1 month after treatment): (22.37%) | SAQ Question 1-8: Slightly limited, patients (%) (1 month after treatment): (20.86%) | 8th question: Dissatisfied, patients (%) (3 months after treatment): (0.07%) | 8th question: Highly satisfied, patients (%) (3 months after treatment): (19.43%) | 8th question: Mostly dissatisfied, patients (%) (3 months after treatment): (2.85%) | 8th question: Mostly satisfied, patients (%) (3 months after treatment): (52.31%) | 8th question: Partly satisfied, patients (%) (3 months after treatment): (25.34%) | 9th question: Few, patients (%) (3 months after treatment): (31.56%) | 9th question: Mild, patients (%) (3 months after treatment): (32.99%) | 9th question: Moderate, patients (%) (3 months after treatment): (15.51%) | 9th question: Severe, patients (%) (3 months after treatment): (0.95%) | 9th question: Uneffective, patients (%) (3 months after treatment): (18.98%) | 10th question: Dissatisfied, patients (%) (3 months after treatment): (20.88%) | 10th question: Highly satisfied, patients (%) (3 months after treatment): (4.90%) | 10th question: Mostly dissatisfied, patients (%) (3 months after treatment): (22.38%) | 10th question: Mostly satisfied, patients (%) (3 months after treatment): (23.47%) | 10th question: Partly satisfied, patients (%) (3 months after treatment): (28.37%) | 11th question: Continuously worried, patients (%) (3 months after treatment): (4.62%) | 11th question: No worried, patients (%) (3 months after treatment): (4.76%) | 11th question: Occasionally worried, patients (%) (3 months after treatment): (41.47%)
